Where two headings read alike, the source gives them in different places.
Tests used:
[1] = molecular target: MMP-13CD (catalytic domain of collagenase 3) (Homo sapiens, UniProt P45452); test: Thiopeptolide hydrolysis assay, MMP-13;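 also: inhibition of enzymatic thiopeptolide substrate cleavage (100 µM) in pH 6.0 MES buffer with CaCl2 and DTNB, comparing hydrolysis with versus without inhibitor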
[2] = molecular target: MMP-3CD (catalytic domain of stromelysin) (Homo sapiens, UniProt P08254); test: Thiopeptolide hydrolysis assay, MMP-3; format: biochemical;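 also: inhibition of thiopeptolide substrate (100 µM) cleavage by the MMP-3 catalytic domain, detected with DTNB at pH 6.0 with CaCl2, hydrolysis compared against runs lacking inhibitor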
MMP-3CD (catalytic domain of stromelysin), sequence (P08254 100-272 limits assumed): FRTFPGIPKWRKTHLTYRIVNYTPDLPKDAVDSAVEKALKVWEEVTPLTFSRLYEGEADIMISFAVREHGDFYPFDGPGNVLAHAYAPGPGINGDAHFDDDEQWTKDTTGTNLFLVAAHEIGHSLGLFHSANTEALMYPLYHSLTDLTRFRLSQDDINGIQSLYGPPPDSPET
Protocol: (§1) They measure the amount by which a test compound reduces the hydrolysis of a thiopeptolide substrate caused by a matrix metalloproteinase enzyme.
Thiopeptolide substrates show virtually no decomposition or hydrolysis in the absence of a matrix metalloproteinase enzyme. A typical thiopeptolide substrate commonly utilized for assays is Ac-Pro-Leu-Gly-thioester-Leu-Leu-Gly-OEt. A 100 μL assay mixture will contain 50 mM of 2-morpholinoethane sulfonic acid monohydrate (MES, pH 6.0) 10 mM CaCl2, 100 μM thiopeptolide substrate, and 1 mM 5,5′-dithio-bis-(2-nitro-benzoic acid) (DTNB). […] Assays are carried out with and without matrix metalloproteinase inhibitor compounds, and the amount of hydrolysis is compared for a determination of inhibitory activity of the test compounds.

[3] = molecular target: T1, MMP-1FL (full-length interstitial collagenase) (Homo sapiens, UniProt P03956); test: Thiopeptolide hydrolysis assay, MMP-1; format: biochemical; details: read-out: MMP01 IC50
T1 sequence (P03956 100-469): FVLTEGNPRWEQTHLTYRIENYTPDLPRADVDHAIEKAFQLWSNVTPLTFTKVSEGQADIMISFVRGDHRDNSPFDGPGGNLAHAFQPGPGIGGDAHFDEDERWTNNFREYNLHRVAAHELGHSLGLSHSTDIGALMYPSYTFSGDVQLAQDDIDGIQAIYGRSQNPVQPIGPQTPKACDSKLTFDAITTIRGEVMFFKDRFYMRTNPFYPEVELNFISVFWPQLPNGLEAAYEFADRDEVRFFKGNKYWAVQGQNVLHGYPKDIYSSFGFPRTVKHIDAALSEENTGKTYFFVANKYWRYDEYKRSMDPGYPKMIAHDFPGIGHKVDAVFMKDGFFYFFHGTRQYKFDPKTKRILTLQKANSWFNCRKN
Protocol: as §1
Thiopeptolide substrates show virtually no decomposition or hydrolysis in the absence of a matrix metalloproteinase enzyme. A typical thiopeptolide substrate commonly utilized for assays is Ac-Pro-Leu-Gly-thioester-Leu-Leu-Gly-OEt. A 100 μL assay mixture will contain 50 mM of 2-morpholinoethane sulfonic acid monohydrate (MES, pH 6.0) 10 mM CaCl2, 100 μM thiopeptolide substrate, and 1 mM 5,5′-dithio-bis-(2-nitro-benzoic acid) (DTNB). […] The change in absorbance at 405 nm is monitored on a Thermo Max microplate reader (moleucular Devices, Menlo Park, Calif.) at room temperature (22° C.). […] Assays are carried out with and without matrix metalloproteinase inhibitor compounds, and the amount of hydrolysis is compared for a determination of inhibitory activity of the test compounds.

Row | IC50 ([1]; MMP13 IC50 (nM), Table II) | IC50 ([2]; Table II, read-out: MMP03 IC50) | IC50 ([3]; Table II) | Compound | IC50 ([1]; MMP13 IC50 (μM), Table 1b) | IC50 ([2]; Table 1b, read-out: MMP03 IC50) | IC50 ([3]; Table 1b) | IC50 ([2]; MMP03 IC50 (nM), Table II)
1 | 280 nM | > 100000 nM | > 100 µM | COc1ccc(CNC(=O)c2ccc(OC)c(C(=O)NCc3ccc(OC)cc3)c2)cc1 | – | – | – | –
2 | 255 nM | 64000 nM | > 100 µM | COC(=O)c1ccc(CNC(=O)c2cccc(C(=O)NCc3cccc(OC)c3)c2)cc1 | – | – | – | –
3 | 77 nM | > 100000 nM | > 100 µM | COc1cccc(CNC(=O)c2cccc(C(=O)NCc3ccc(C(=O)O)cc3)c2)c1 | – | – | – | –
4 | 935 nM | > 100000 nM | > 100 µM | COc1cccc(CNC(=O)c2cccc(C(=O)NCc3cccc(N)c3)c2)c1 | – | – | – | –
5 | 385 nM | 76000 nM | > 100 µM | COc1cccc(CNC(=O)c2cccc(C(=O)NCc3ccc(C)cc3)c2)c1 | – | – | – | –
6 | 1140 nM | > 100000 nM | > 100 µM | COc1cccc(CNC(=O)c2cccc(C(=O)NCc3ccc([N+](=O)[O-])cc3)c2)c1 | – | – | – | –
7 | 7930 nM | > 100000 nM | > 100 µM | COc1cccc(CNC(=O)c2cccc(C(=O)NCc3cccnc3)c2)c1 | – | – | – | –
8 | 1400 nM | > 100000 nM | > 100 µM | COc1cccc(CNC(=O)c2cccc(C(=O)NCc3ccncc3)c2)c1 | – | – | – | –
9 | 555 nM | 68000 nM | > 100 µM | COc1cccc(CNC(=O)c2cccc(C(=O)NCc3ccc(Cl)c(Cl)c3)c2)c1 | – | – | – | –
10 | 503 nM | > 100000 nM | > 100 µM | COc1cccc(CNC(=O)c2cccc(C(=O)NCc3ccc(Cl)cc3)c2)c1 | – | – | – | –
11 | 415 nM | 40000 nM | > 100 µM | COc1ccc(CNC(=O)c2cccc(C(=O)NCc3cccc(OC)c3)c2)cc1 | – | – | – | –
12 | 493 nM | 20000 nM | 51 µM | CCOc1ccc(C(=O)NCc2ccc3c(c2)OCO3)cc1C(=O)NCc1ccc2c(c1)OCO2 | – | – | – | –
13 | 1450 nM | 27000 nM | > 100 µM | CCCOc1ccc(C(=O)NCc2ccc3c(c2)OCO3)cc1C(=O)NCc1ccc2c(c1)OCO2 | – | – | – | –
14 | 155 nM | 21000 nM | 30 µM | COc1ccc(C(=O)NCc2ccc3nsnc3c2)cc1C(=O)NCc1ccc2nsnc2c1 | – | – | – | –
15 | 180 nM | > 100000 nM | > 100 µM | COc1cccc(CNC(=O)c2ccc(OC)c(C(=O)NCc3cccc(OC)c3)c2)c1 [4-Methoxy-N,N′-bis-(3-methoxy-benzyl)-isophthalamide] | – | – | – | –
16 | 7250 nM | > 100000 nM | > 100 µM | COc1ccc(C(=O)NCc2ccc(C)cc2)cc1C(=O)NCc1ccc(C)cc1 [4-Methoxy-N,N′-bis-(4-methyl-benzyl)-isophthalamide] | – | – | – | –

More lines, now with the values behind:

Row | Compound | IC50 ([1]; MMP13 IC50 (nM), Table II) | IC50 ([2]; Table II, read-out: MMP03 IC50) | IC50 ([3]; Table II) | IC50 ([1]; MMP13 IC50 (μM), Table 1b) | IC50 ([2]; Table 1b, read-out: MMP03 IC50) | IC50 ([3]; Table 1b) | IC50 ([2]; MMP03 IC50 (nM), Table II)
17 | COC(=O)COc1ccc(C(=O)OCc2ccccc2)cc1C(=O)OCc1ccccc1 | 9250 nM | > 100000 nM | > 100 µM | – | – | – | –
18 | Cc1c(=O)n(Cc2ccc(C(=O)O)cc2)c(=O)n2cc(C(=O)NCc3ccc(F)cc3)sc12 | – | – | – | 2.2 nM | 68000 nM | > 100 µM | –
19 | O=C(OCc1ccccc1)C1C[S+]([O-])c2cc(=O)n(Cc3ccccc3)c(=O)n21 (stereo not drawn) | – | – | – | 72 nM | 23000 nM | > 100 µM | –
20 | O=C(NCc1ccncc1)C1Cn2c(cc(=O)n(Cc3ccccc3)c2=O)S1 (stereo not drawn) | – | – | – | 590 nM | > 100000 nM | > 100 µM | –
21 | COc1ccc(CNC(=O)c2cn3c(=O)n(Cc4ccccc4)c(=O)c(C=O)c3s2)cc1 | – | – | – | 22.4 nM | 11000 nM | > 100 µM | –
22 | Cc1c(=O)n(Cc2ccccc2)c(=O)n2cc(C(=O)NCc3ccccc3)sc12 | – | – | – | 94 nM | 51000 nM | > 100 µM | –
23 | COc1cccc(CNC(=O)c2cn3c(=O)n(Cc4ccccc4)c(=O)c(C)c3s2)c1 | – | – | – | 6 nM | 22000 nM | > 30 µM | –
24 | Cc1c(=O)n(Cc2ccccc2)c(=O)n2cc(C(=O)NCc3ccc(Cl)c(Cl)c3)sc12 | – | – | – | 265 nM | 20000 nM | > 30 µM | –
25 | COc1ccc(CNC(=O)c2cn3c(=O)n(Cc4ccccc4)c(=O)c(C)c3s2)cn1 | – | – | – | 17.5 nM | > 10000 nM | > 30 µM | –
26 | Cc1c(=O)n(Cc2ccccc2)c(=O)n2cc(C(=O)NCc3ccc(F)cc3)sc12 | – | – | – | 24.5 nM | > 100000 nM | > 30 µM | –
27 | Cc1cccc(CNC(=O)c2cn3c(=O)n(Cc4ccccc4)c(=O)c(C)c3s2)c1 | – | – | – | 25 nM | 19000 nM | > 100 µM | –
28 | Cc1c(=O)n(Cc2ccccc2)c(=O)n2cc(C(=O)NCc3ccc(C(F)(F)F)cc3)sc12 | – | – | – | 2210 nM | > 100000 nM | > 30 µM | –
29 | COc1ccc(CNC(=O)c2cn3c(=O)n(Cc4ccccc4)c(=O)c(C)c3s2)cc1F | – | – | – | 25 nM | 12000 nM | > 100 µM | –
30 | Cc1c(=O)n(Cc2ccccc2)c(=O)n2cc(C(=O)NCc3cccc(F)c3)sc12 | – | – | – | 120 nM | > 30000 nM | > 30 µM | –
31 | Cc1ccc(CNC(=O)c2cn3c(=O)n(Cc4ccccc4)c(=O)c(C)c3s2)cc1 | – | – | – | 225 nM | 19000 nM | > 30 µM | –
32 | Cc1c(=O)n(Cc2ccccc2)c(=O)n2cc(C(=O)NCc3ccc(Cl)cc3)sc12 | – | – | – | 86.9 nM | 23000 nM | > 30 µM | –
33 | Cc1c(=O)n(Cc2ccccc2)c(=O)n2cc(C(=O)NCc3ccc(F)c(F)c3)sc12 | – | – | – | 29 nM | > 30000 nM | > 100 µM | –
34 | COc1ccc(CNC(=O)c2cn3c(=O)n(Cc4ccccc4)c(=O)c(C)c3s2)cc1 | – | – | – | 21.7 nM | 16000 nM | > 30 µM | –
35 | Cc1c(=O)n(Cc2ccccc2)c(=O)n2cc(C(=O)NCc3ccc(OC(F)(F)F)cc3)sc12 | – | – | – | 815 nM | > 100000 nM | > 30 µM | –
36 | O=C(NCc1ccc(Cl)c(Cl)c1)c1cn2c(=O)n(Cc3ccc(Cl)cc3)c(=O)cc2s1 | – | – | – | 4300 nM | > 100000 nM | > 30 µM | –
37 | Cc1c(=O)n(Cc2ccccc2)c(=O)n2cc(C(=O)NCc3cccnc3)sc12 | – | – | – | 225 nM | > 30000 nM | > 100 µM | –
38 | COc1ccc(CNC(=O)c2cccc(C(=O)NCc3ccc4c(c3)OCO4)c2)cc1 | 1650 nM | – | > 100 µM | – | – | – | > 100000 nM
39 | O=C(NCc1ccccc1)c1cccc(C(=O)NCc2ccc3c(c2)OCO3)c1 | 1900 nM | > 100000 nM | > 100 µM | – | – | – | –
40 | O=C(NCc1ccc2c(c1)OCO2)c1cccc(C(=O)NCc2ccco2)c1 | 3400 nM | > 100000 nM | > 100 µM | – | – | – | –
41 | COc1cccc(CNC(=O)c2cccc(C(=O)OCc3ccc(C(=O)O)cc3)c2)c1 | 44 nM | > 100000 nM | > 100 µM | – | – | – | –
42 | O=C(NCc1cccnc1)c1cccc(C(=O)NCc2ccc3c(c2)OCO3)c1 | 1500 nM | > 100000 nM | > 100 µM | – | – | – | –
43 | O=C(O)CN(Cc1ccccc1)C(=O)c1cccc(C(=O)NCc2ccc3c(c2)OCO3)c1 | 915 nM | > 100000 nM | > 100 µM | – | – | – | –
44 | CC(=O)c1ccc(C(=O)OCc2ccccc2)cc1C(=O)OCc1ccccc1 [4-Acetyl-isophthalic acid dibenzyl ester] | 8200 nM | > 100000 nM | > 100 µM | – | – | – | –
45 | COc1ccc(C(=O)OCc2ccccc2)cc1C(=O)OCc1ccccc1 [4-Methoxy-isophthalic acid dibenzyl ester] | 900 nM | > 100000 nM | > 100 µM | – | – | – | –
46 | COc1ccc(C(=O)OCc2ccncc2)cc1C(=O)OCc1ccncc1 [4-Methoxy-isophthalic acid dipyridin-4-ylmethyl ester] | 255 nM | > 100000 nM | > 100 µM | – | – | – | –
